Test results reported in patent US9572890B2, “Oral formulations of mitochondrially-targeted antioxidants and their preparation and use” (MITOTECH SA, priority 2011, dated 2017).

Assays:
[1] = Stability in dark plastic or glass vials (light sensitivity); format: physicochemical
Source text: Accordingly, one of the ways to further improve or increase stability of SkQ liquid compositions during storage and transportation is to protect it from light.

[2] = test system: LPS-induced septic shock; assay: LPS/D-GalN-induced septic shock, survival; format: in vivo, BALB/c mice
Description: Induction of the septic shock was performed as follows: 43 male BALB/c mice with free food and water access were divided onto 4 experimental groups. Group “K” got water without drugs. Groups “SkQ 50,” “SkQ 250,” and “SkQ 1250” were daily parenterally treated with pharmaceutical form of SkQ1 in water comprising 50 nmol/kg, 250 nmol/kg, and 1250 nmol/kg accordingly. After 3 weeks of SkQ1 treatment animals were intraperitonially injected with […] LPS and 700 mg/kg D-galactosamine (D-GalN) inducing septic shock leading to death of 50% of untreated control animals (LD50 dose). Death of animals were registered after 4 d of septic shock induction.

[3] = Storage stability of oxidized SkQ1 formulations (Example 8); format: physicochemical
Description: The stability of SkQ1 in the prepared solution was investigated by storage at RT and at 60° C. (Table 4).
The stability of SkQ1 in the prepared solution was investigated by storage at 60° C. (Table 5).
The stability of SkQ1 in the prepared composition was investigated by storage at 4° C. in darkness (Table 6).
The stability of SkQ1 in the prepared composition was investigated by storage at 60° C. in darkness (Table 7).
The stability of SkQ1 in the prepared composition was investigated by storage at RT in darkness (Table 8).
The stability of SkQ1 in the prepared composition was investigated by storage at 60° C. in darkness (Table 9).
The stability of SkQ1 in the prepared composition was investigated by storage at RT in darkness (Table 10).
The stability of SkQ1 in the prepared composition was investigated by storage at 60° C. in darkness (Table 11).

[4] = test system: full-thickness dermal wounds of db/db mice; assay: Wound healing in db/db diabetic mice; format: in vivo; conditions: SkQ1 in 20% glycerol, 250 nmol/kg per day, 10 to 12 weeks; 7 days after wounding
Source text: Wound healing was studied in two series using 6 months old C57BLKS-Leprdb/J mice (db/db) homozygous and heterozygous C57BLKS-Leprdb/J mice (db/+) mice. These mice are used as type II diabetes model with impaired wound healing (Michaels, et al. (2007) Wound Repair and Regeneration, 15:665-670).
The mice were daily administered 250 nmol/kg body weight per day with the pharmaceutical form of SkQ1 in 20% glycerol as described in Example 8) during period of time from 10 weeks to 12 weeks. Control groups of db/db and db/+ mice were not treated with SkQ1. Full-thickness dermal wounds were made under anesthesia of ketamine (80 mg/kg). Animals were kept in plastic cages under standard temperature, light, and feeding regimes. 7 days after wounding, animals were sacrificed by decapitation. The wounds were excised, fixed in 10% formalin in standard PBS buffer, histologically processed, and embedded in paraffin. Histological sections of central part of the wounds were cut and stained with hematoxylin and eosin. The sections were immunohistochemically stained for markers of endothelial cells (CD31), macrophages (f4/80), and myofibroblasts (smooth muscle α-actin). ImageJ software (National Institutes of Health (NIH) http:/rsb.info.nih.gov/ij/) was used to calculate total amount of cells, number of neutrophils, macrophages and vessel density (vessel area/granulation tissue area*100) on the microphotographs of wound sections. For each animal 100 mm^2 of section area was analyzed. Wound epithelization rate was assessed in % as ratio of epithelized wound area to total wound area on tissue section*100. For statistical analysis nonparametric Mann-Whitney U-test was used. Data are shown as means±S.E.M.

[5] = test system: alloxan diabetes; assay: Alloxan diabetes, blood glucose level (glucose oxidase method); format: in vivo, rats; conditions: 250 nM SkQ1 in drinking water (approx. 50 nmol/kg per day) 10 d before and 14 d after alloxan 100 mg/kg s.c.; 2 weeks after alloxan
Description: Induction of the alloxan diabetes was performed as follows: Two groups of laboratory rats (20 animals in each group) with free food and water access fed a 250 nM solution of SkQ1 for 10 d. The daily rat consumption was 60 ml water solution (containing 15 nmoles SkQ1). The average weight of rats was 300 g. Thus, rats consumed approximately 50 nmol/kg body weight per day. […] After 10 d, rats were subcutaneously (in the area of the thigh) injected with alloxan dissolved in isotonic salt solution of 0.9% w/v of NaCl (100 mg/kg body weight; groups “Alloxan+SkQ1” and “Alloxan.” Control animals were injected with salt solution without alloxan (groups “Control+SkQ1” and “Control”). After injection, the rats continued to drink water containing SkQ1 (250 nM) during 14 d (group “Alloxan+SkQ1”) or were kept without SkQ1 (group “Alloxan”). Data on glucose blood level was measured by the glucose oxidase method ([…] et al. (1958) J. Lab. Clin. Med., 51:445-460) after 2 weeks of alloxan injection. All data are presented as the mean+/-SE.

[6] = test system: collagen-induced arthritis; assay: Collagen-induced arthritis (CIA); format: in vivo, Wistar rats; conditions: SkQ1 in water 250 nmol/kg per day from day 14 or day 24 after collagen injection
Description: Thirty Wistar rats with free food and water access were injected with complete Freund adjuvant and 250 mg type II collagen to induce CIA. Starting from 14 d and from 24 d after injection, two groups of 10 animals in each were daily fed with pharmaceutical form of SkQ1 in water comprising 250 nmol/kg body weight per day (groups “SkQ1 from day 14” and “SkQ1 from day 24”; Group “Control” received water without drugs).

stability [1]: significantly increased | SkQ1, % ([3]; SkQ1 1 mM in 20% glycerol, phosphate buffer pH 4.77, stored at 60° C., day 0): 99.34% | SkQ1, % ([3]; SkQ1 1 mM in 20% glycerol, phosphate buffer pH 4.77, stored at 60° C., day 19): 95.30% | SkQ1, % ([3]; SkQ1 1 mM in 20% glycerol, phosphate buffer pH 4.77, stored at RT, day 0): 99.34% | SkQ1, % ([3]; SkQ1 1 mM in 20% glycerol, phosphate buffer pH 4.77, stored at RT, day 11): 99.71% | SkQ1, % ([3]; SkQ1 1 mM in 20% glycerol, phosphate buffer pH 4.77, stored at RT, day 13): 99.76% | SkQ1, % ([3]; SkQ1 1 mM in 20% glycerol, phosphate buffer pH 4.77, stored at RT, day 14): 99.68% | SkQ1, % ([3]; SkQ1 1 mM in 20% glycerol, phosphate buffer pH 4.77, stored at RT, day 17): 99.62% | SkQ1, % ([3]; SkQ1 1 mM in 20% glycerol, phosphate buffer pH 4.77, stored at RT, day 19): 99.63% | SkQ1, % ([3]; SkQ1 1 mM in 20% glycerol, phosphate buffer pH 4.77, stored at RT, day 21): 99.52% | SkQ1, % ([3]; SkQ1 1 mM in 20% glycerol, phosphate buffer pH 4.77, stored at RT, day 24): 99.57% | SkQ1, % ([3]; SkQ1 1 mM in 20% glycerol, phosphate buffer pH 4.77, stored at RT, day 61): 99.49% | SkQ1, % ([3]; SkQ1 with PEG-4000, solid, 4° C. in darkness, day 18): >99.9% | SkQ1, % ([3]; SkQ1 with PEG-4000, solid, 4° C. in darkness, day 19): 99.83% | SkQ1, % ([3]; SkQ1 with PEG-4000, solid, 4° C. in darkness, day 20): 99.80% | SkQ1, % ([3]; SkQ1 with dextran and p-ABA, solid, 60° C. in darkness, day 0): 97.13% | SkQ1, % ([3]; SkQ1 with dextran and p-ABA, solid, 60° C. in darkness, day 6): 39.22% | SkQ1, % ([3]; SkQ1 with dextran and p-ABA, solid, 60° C. in darkness, day 15): 7.07% | SkQ1, % ([3]; SkQ1 with dextran, solid, 60° C. in darkness, day 0): 96.71% | SkQ1, % ([3]; SkQ1 with dextran, solid, 60° C. in darkness, day 6): 20.66% | SkQ1, % ([3]; SkQ1 with dextran, solid, 60° C. in darkness, day 15): 24.14% | SkQ1, % ([3]; SkQ1 with dextran, solid, 60° C. in darkness, day 25): 18.93% | SkQ1, % ([3]; SkQ1 with myoinosite, solid, RT in darkness, day 0): 95.88% | SkQ1, % ([3]; SkQ1 with myoinosite, solid, RT in darkness, day 5): 96.86% | SkQ1, % ([3]; SkQ1 with myoinosite, solid, RT in darkness, day 6): 95.99% | SkQ1, % ([3]; SkQ1 with myoinosite, solid, RT in darkness, day 15): 92.26% | SkQ1, % ([3]; SkQ1 with p-aminobenzoic acid (p-ABA), solid, RT in darkness, day 0): 100% | SkQ1, % ([3]; SkQ1 with p-aminobenzoic acid (p-ABA), solid, RT in darkness, day 30): 58.42% | SkQ1, % ([3]; presumably SkQ1 in 50% 1,2-propylene glycol with lactic acid (10 eq), 60° C., day 0): >99.9% | SkQ1, % ([3]; presumably SkQ1 in 50% 1,2-propylene glycol with lactic acid (10 eq), 60° C., day 72): 96.6% | SkQ1, % ([3]; presumably SkQ1 in 50% 1,2-propylene glycol with pyruvic acid (10 eq), 60° C., day 0): >99.9% | SkQ1, % ([3]; presumably SkQ1 in 50% 1,2-propylene glycol with pyruvic acid (10 eq), 60° C., day 72): 93.2%
SMILES: CC1=C(C)C(=O)C(CCCCCCCCCC[P+](c2ccccc2)(c2ccccc2)c2ccccc2)=CC1=O [SkQ1]
survival of mice following LPS/D-GalN treatment ([2]; SkQ1 in water 50, 250, 1250 nmol/kg daily parenterally for 3 weeks, death registered after 4 d): significantly improved | survival, significance of the effect ([2]; dose of 50 nmol/kg, p=0.03): statistically significant effect | neutrophil infiltration of wounds [4]: decreasing | rate of epithelization of wounds [4]: increasing | vascularization of wounds (vessel density) [4]: increasing | blood glucose, lower compared to animals without SkQ1 treatment [5]: about 2 fold | number of animals with apparent inflammation (increased paw volumes) [6]: reduced
